Consider 32 compounds from paper PMC13223435, “Synthesis and Antiproliferative Activity against Melanoma Cells of New Heterocyclic Hybrids Based on Pyridine and Pyrimidine Scaffolds” (Current Medicinal Chemistry, 2025).

Molecules are shown by their SMILES.

In one assay the test system is melanoma A375 cells. In words: WST-1 antiproliferative assay. The assay is classed as cell-based. The note with it: Homo sapiens, A-375; for activity at 10 µM: 48 h of treatment, A375, read-out: Cell proliferation (% control); for IC50: 48 hours of treatment. An excerpt:
The A375 malignant melanoma cell line (ECACC 88113005, Salisbury, UK) was procured from the European Collection of Authenticated Cell Cultures (ECACC). The primary culture of human dermal fibroblasts (HDF) was derived from skin according to the protocol approved by the Ethical Committee of Pomeranian Medical University in Szczecin (KB-0012/02/18). The detailed protocol of fibroblast isolation, authentication, and cell culture conditions was previously described. Both cell lines were cultivated in a humidified incubator under conditions of 5% CO2 and a temperature of 37°C, using Dulbecco’s modified Eagle’s medium (DMEM) with 4500 mg/L glucose (Sigma-Aldrich Merck Group, St. Louis, MO, USA) enriched with 10% heat-inactivated fetal bovine serum (FBS, EURx, Gdańsk, Poland), 2 mM L-glutamine (Sigma-Aldrich Merck Group, St. Louis, MO, USA), and penicillin-streptomycin solution (Sigma-Aldrich Merck Group, St. Louis, MO, USA). Regular assessments for the presence of mycoplasma were conducted using the MycoAlert® Mycoplasma Detection Kit (Lonza, Rockland, ME, USA).
The evaluation of the antiproliferative activity of the compounds was performed using the Cell Proliferation Reagent WST-1 assay (Roche, Germany). This assay relies on the reduction of tetrazolium salt to formazan, with the final amount of formazan proportional to the number of viable cells. In our study, A375 cells (2×10^3) and HDF (3×10^3) were initially seeded into 96-well plates and cultured in a humidified atmosphere of 5% CO2 at 37°C. 24 hours later, the culture medium was replaced with a medium containing the tested compounds for a 48-hour incubation period at specified final concentrations. […] For control purposes, cells without the tested compounds, which contained only the vehicle (DMSO), were used. Additionally, a blank sample consisting of tested compounds in a medium (without cells) was included. After the 48-hour incubation period, the WST-1 reagent was introduced and allowed to incubate with the cells for 30 minutes. The absorbance was subsequently measured at 450 nm with background correction at 620 nm using a microplate reader (Infinite 200 Pro, Tecan, Männedorf, Switzerland). Cell viability was calculated according to the following formula: [(Atest–Ablank)/ (Acontrol − Ablank)] × 100%. These measurements were conducted in triplicate for at least three independent experiments.
In the screening step, 10 µM solutions of all 33 compounds were tested on A375 cells. […] Selected compounds (2c, 18e, 16b, 29) were tested at concentrations of 0.1, 1, 10, 50, and 100 µM. The IC50 values were determined using an online calculator (AAT Bioquest, Inc., Quest Graph™ IC50 Calculator (v.1). Retrieved from https://www.aatbio.com/tools/IC50-calculator-v1, accessed on: 2022, December 12).

Another assay concerns the target T1, tubulin (Sus scrofa, UniProt P02550+P02554).
T1 construct: purchased Cytoskeleton, Denver, CO, USA
Kind of assay: Cell free tubulin polymerization assay (fluorescence-based). The class given is biochemical. Particulars: 3 µM. How it is done: The tubulin polymerization process was evaluated using a tubulin (>99% pure) and fluorescence-based tubulin polymerization kit (Cytoskeleton, Denver, CO, USA). The effects of compounds 16b and 29 (at final concentrations of 1, 10, 50, 100 µM) on tubulin polymerization were evaluated in cell-free conditions. Paclitaxel (PTX) and vinblastine (VBL) (3 µM) were used as references, and DMSO (0.2%) was used as the vehicle control. This assay tracks the process of tubulin polymerization through an increase in fluorescence resulting from the addition of a fluorescence reporter to microtubules as polymerization occurs. After incubating the tested compounds at 37°C for 1 minute, the icy tubulin reaction mixture (2 mg/mL tubulin, 1.0 mM GTP, 15% glycerol in buffer containing 80 mM PIPES, 2.0 mM MgCl2, 0.5 mM EGTA, pH 6.9, and 10 µM fluorescent reporter) was added to the samples, which were then mixed and monitored using a spectrophotometric microplate reader (Infinite 200 Pro, Tecan) at 1-minute intervals for 90 minutes at 37°C (excitation: 360 nm, emission: 450 nm). The software installed on the plate reader was used to compute the maximum slope (Vmax) of the growth phase, measured in RFU/min, as outlined in the manufacturer's instructions. Each polymerization curve's Vmax was then standardized against the control curve's Vmax. The IC50 values were determined using an online tool (AAT Bioquest, Inc., Quest Graph™ IC50 Calculator ((v.1). Retrieved from https://www.aatbio.com/tools/IC50-calculator-v1, accessed on: 2024, May 6).

For a further assay, the system named is A375 cells. In words: Live-cell imaging (time-lapse microscopy). The note with it: 1 µM, positive control. The class given is cell-based. The procedure:
For live-cell imaging, A375 cells were seeded into 96-well plates at a density of 2×10^3 cells per well and allowed to grow for 24 h before imaging. Next, the cell culture medium was carefully removed, and new medium containing 16b (at 2 µM and 10 µM) and 29 (at 5 µM and 10 µM) was added and the cell culture plate was placed in the imaging chamber of Agilent BioTek Lionheart FX automated microscope (Agilent Technologies, Inc., Santa Clara, CA, USA) equipped with a Plan Fluorite 20x/0.75 objective (Olympus, Nishi-Shinjuki, Tokyo, Japan), and a FLIR Blackfly BFLY-U3-23S6M camera (Teledyne FLIR, Wilsonville, OR, USA). The temperature in the imaging chamber was set to 37°C and CO2 level to 5%. The bright-field images were acquired every 5 minutes for 48 hours.

T1 sequence (P02554 whole entry): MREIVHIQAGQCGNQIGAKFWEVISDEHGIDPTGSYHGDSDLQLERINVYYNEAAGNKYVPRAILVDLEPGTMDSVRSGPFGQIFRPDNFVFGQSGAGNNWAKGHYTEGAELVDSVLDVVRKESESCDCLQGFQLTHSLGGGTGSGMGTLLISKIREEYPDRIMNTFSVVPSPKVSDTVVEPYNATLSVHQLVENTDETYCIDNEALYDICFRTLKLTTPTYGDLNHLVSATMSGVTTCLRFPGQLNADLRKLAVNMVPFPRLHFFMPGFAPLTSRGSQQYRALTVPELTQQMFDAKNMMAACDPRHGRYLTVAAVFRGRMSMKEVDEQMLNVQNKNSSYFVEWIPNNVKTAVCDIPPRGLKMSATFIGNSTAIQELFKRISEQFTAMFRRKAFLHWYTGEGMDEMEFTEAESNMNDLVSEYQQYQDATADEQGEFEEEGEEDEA
T1 sequence (P02550 whole entry): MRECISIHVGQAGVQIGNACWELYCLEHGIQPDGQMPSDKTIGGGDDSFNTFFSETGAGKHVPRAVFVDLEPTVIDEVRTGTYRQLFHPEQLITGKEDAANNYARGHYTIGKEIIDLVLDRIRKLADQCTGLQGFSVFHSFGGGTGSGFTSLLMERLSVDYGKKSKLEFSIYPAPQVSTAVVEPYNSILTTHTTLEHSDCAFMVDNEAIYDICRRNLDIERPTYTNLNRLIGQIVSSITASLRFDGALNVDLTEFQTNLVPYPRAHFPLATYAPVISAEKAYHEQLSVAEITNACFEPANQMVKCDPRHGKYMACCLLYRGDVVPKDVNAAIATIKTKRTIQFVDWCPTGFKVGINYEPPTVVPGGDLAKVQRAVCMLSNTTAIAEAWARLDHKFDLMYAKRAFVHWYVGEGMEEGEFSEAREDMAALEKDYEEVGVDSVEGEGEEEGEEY

On to `O=c1ccc(-c2cccc3sccc23)c[nH]1` [Compound 12b], for which the activity at 10 µM in the assay on melanoma A375 cells turned out to be 97.8 ± 6.41%. As to `COc1ccc(C2=CNC(=S)N(Cc3ccccc3)C2C#Cc2ccccc2)cc1` (stereo not shown) [Compound 2a], the activity at 10 µM in the assay with melanoma A375 cells came out at 100 ± 6.85%. On to `S=C1CC(Cc2ccccc2)C(C#Cc2cccs2)=CN1` (stereo not shown) [Compound 6a], for which the activity at 10 µM in the assay with melanoma A375 cells amounted to 101 ± 9.41%.

On to `Cn1c(CC2C=CN(c3ccccc3)C(=O)C2)cc2ccccc21` (stereo not shown) [Compound 23a], for which, in the assay on melanoma A375 cells, the activity at 10 µM was determined as 67.6 ± 13.3%. `O=c1ccc(C#Cc2ccsc2)c[nH]1` [Compound 5b]: the activity at 10 µM in the assay on melanoma A375 cells worked out at 113 ± 9.77%. Still for that read-out and setting: next, `S=C1CC=C(c2ccco2)C(Cc2ccccc2)N1CC1CC1` (stereo not shown) [Compound 17d]: 98.7 ± 1.41%; `O=C1CC(Cc2ccccc2)C(C(=O)N2CCOCC2)=CN1` (stereo not shown) [Compound 21]: 117 ± 13%. `O=c1ccc(-c2csc3ccccc23)c[nH]1` [Compound 12a]: the activity at 10 µM with melanoma A375 cells was 106 ± 6.52%. Turning to `CC(=O)O[C@H]1C(=O)[C@@]2(C)[C@H]([C@H](OC(=O)c3ccccc3)[C@]3(O)C[C@H](OC(=O)[C@H](O)[C@@H](NC(=O)c4ccccc4)c4ccccc4)C(C)=C1C3(C)C)[C@]1(OC(C)=O)CO[C@@H]1C[C@@H]2O` [PTX, Paclitaxel, reference compound], at tubulin, the “effect on tubulin polymerization” value is “reduced the duration of the nucleation phase and increased the Vmax”. With `O=C1CC(Cc2nc3ccccc3o2)C=CN1c1ccccc1` (stereo not shown) [Compound 25a], the activity at 10 µM in the assay on melanoma A375 cells was 104 ± 1.5%. `COc1cc(-c2cnc(=S)[nH]c2)cc(OC)c1OC` [Compound 1d]: the activity at 10 µM in the assay with melanoma A375 cells came to 99.2 ± 10.8%. Same read-out and setting: next, `COc1ccc(C2=CNC(=S)N(C)C2C#Cc2ccsc2)cc1` (stereo not shown) [Compound 2b]: 92.4 ± 2.51%. For the compound `S=C1CC(Cc2ccccc2)C(c2ccco2)=CN1` (stereo not shown) [Compound 18e], in the assay with melanoma A375 cells, the activity at 10 µM worked out at 51.4 ± 18.5% and the midpoint of inhibition, the IC50, lay at 10.1 ± 0.75 µM. As for `O=C1CC(Cc2ccccc2)C(n2cc(-c3ccsc3)nn2)=CN1` (stereo not shown) [Compound 10a], the activity at 10 µM in the assay on melanoma A375 cells was 98.8 ± 12.6%. Turning to `S=c1ccc(-c2cccs2)cn1Cc1ccc2c(c1)OCO2` [Compound 16a], the activity at 10 µM with melanoma A375 cells came to 99.1 ± 3.1%. `S=C1CC(Cc2ccccc2)C(C#Cc2ccsc2)=CN1` (stereo not shown) [Compound 6b]: the activity at 10 µM in the assay on melanoma A375 cells came out at 101 ± 6.05%.

With `S=c1ccc(-c2csc3ccccc23)c[nH]1` [Compound 13a], the activity at 10 µM in the assay on melanoma A375 cells came to 100 ± 3.65%. Take `S=C1NC=C(c2ccccc2)C(C#Cc2ccsc2)N1Cc1ccccc1` (stereo not shown) [Compound 2c]: in the assay with melanoma A375 cells, the activity at 10 µM was determined as 44.8 ± 6.68% and the IC50 stood at 59.3 ± 9.62 µM.

`O=C1CC(Cc2ccccc2)C(n2cc(-c3ccccc3)nn2)=CN1` (stereo not shown) [Compound 10b]: the activity at 10 µM in the assay with melanoma A375 cells is 96.1 ± 4.11%.

`COc1ccc(C#Cc2ccsc2)cn1` [Compound 4b]: the activity at 10 µM in the assay on melanoma A375 cells was determined as 111 ± 10.8%. `COc1cc(C2=CNC(=S)NC2c2cccs2)cc(OC)c1OC` (stereo not shown) [Compound 2f]: the activity at 10 µM in the assay on melanoma A375 cells was found to be 127 ± 9.99%. For the compound `O=c1ccc(C#Cc2cccs2)c[nH]1` [Compound 5a], the activity at 10 µM in the assay on melanoma A375 cells came out at 114 ± 4.12%.

Turning to `COc1cc(C2=CNC(=S)NC2Cc2ccccc2)cc(OC)c1OC` (stereo not shown) [Compound 2e], the activity at 10 µM with melanoma A375 cells is 138 ± 19.5%. With `Cn1c(CC2C=CN(c3ccccc3)C(=S)C2)cc2ccccc21` (stereo not shown) [Compound 23b], the activity at 10 µM in the assay with melanoma A375 cells is 81.4 ± 14.9%. With `COc1ccc(/C=C\c2cc(OC)c(OC)c(OC)c2)cc1O` [CA-4, combretastatin-4, reference compound], the “time-lapse observation of A375 cells” value in the assay with A375 cells is recorded as “caused the formation of characteristic protrusions, indicating changes in the organization of the cytoskeleton leading to apoptosis with typical apoptotic bodies”. Consider `O=c1ccc(-n2cc(-c3ccsc3)nn2)c[nH]1` [Compound 9a], for which, in the assay with melanoma A375 cells, the activity at 10 µM amounted to 114 ± 14.5%. For the compound `S=c1ccc(-c2cccc3sccc23)c[nH]1` [Compound 13b], the activity at 10 µM in the assay on melanoma A375 cells was 77.5 ± 13.1%. Regarding `Cn1c(CC2C=CCC(=O)N2c2ccccc2)cc2ccccc21` (stereo not shown) [Compound 24a], in the assay with melanoma A375 cells, the activity at 10 µM amounted to 107 ± 14.2%. The same measure, in the same setting: next, `S=C1CC=C(c2cccs2)C(Cc2ccccc2)N1CC1CC1` (stereo not shown) [Compound 17c]: 117 ± 2.07%. `CC[C@]1(O)C[C@@H]2CN(CCc3c([nH]c4ccccc34)[C@@](C(=O)OC)(c3cc4c(cc3OC)N(C)[C@H]3[C@@](O)(C(=O)OC)[C@H](OC(C)=O)[C@]5(CC)C=CCN6CC[C@]43[C@@H]65)C2)C1` [VBL, vinblastine, reference compound]: on tubulin, the “effect on tubulin polymerization” value was “suppressed tubulin polymerization, resulting in decreased Vmax and reduced final polymer mass of protein”. Regarding `S=C1CC(Cc2nc3ccccc3o2)C=CN1c1ccccc1` (stereo not shown) [Compound 25b], in the assay with melanoma A375 cells, the activity at 10 µM stood at 88.9 ± 8.81%.

On to `COc1ccc(C2=CNC(=S)N(C)C2C#Cc2ccccn2)cc1` (stereo not shown) [Compound 2d], for which the activity at 10 µM with melanoma A375 cells worked out at 93.3 ± 16.6%.
